US20240041765A1, “ORAL LIQUID SUSPENSION OF PAN-RAF KINASE INHIBITOR” (DAY ONE BIOPHARMACEUTICALS, INC., priority 2022, published 2024)

Test: Single oral dose mouse PK in male CD-1 mice
Assay type: in vivo
Details: plasma, single oral dose 50 mg/kg, Mean ± SD, n = 3, vehicle: Group 1 100% PEG400, Groups 2-3 DI water, Group 4 0.5% methylcellulose in water (w/v)
Experimental: Amorphous solid dispersions of Compound A in aqueous suspension formulations were administered via oral gavage in male CD-1 mice to assess Compound A plasma exposure. Pharmacokinetics (PK) of Compound A crystalline drug substance dissolved in organic solvent (PEG400) were used to generate a solution formulation—also included as the comparator group in this study. The concentrations of Compound A in mouse plasma were quantified with a qualified LC-MS/MS method.
Each oral dosing group consisted of 3 male CD-1 mice. At dosing, the animals weighted between 0.0297 to 0.0376 kg. Animals were not fasted prior to oral administration in this study. Compound A drug substances in corresponding dosing vehicles were administered by oral route using polypropylene gavage tube to CD-1 mice. Serial blood samples were collected at 0.25, 0.50, 1, 4, 8 and 24 hours post-dose. Serial blood samples were collected from a tail vein or another approved method at 0.25, 0.50, 1, 4, 8 hours post-dose. Terminal blood collection were collected via cardiac puncture at 24 hours post-dose.
Blood samples were collected into K2EDTA tubes according to in-life study protocol and immediately placed on wet ice and then centrifuged for 10 minutes at 3500 rpm for plasma preparation. All plasma samples were placed in 96-well strip-tube rack and stored in freezer until plasma analysis. Immediately following terminal blood collection, the brain tissue was collected for each animal. Each tissue was collected into pre-weighed tube and the weight of the tissue sample was determined. Samples were flash frozen and kept on dry ice until stored at −70° C. prior to sample processing and analysis. Table 27 provides the study design for the oral administration of Compound A in mice and summary of mouse PK parameters.
Non compartmental pharmacokinetic (NCA) analysis was performed on plasma concentration data using WinNonlin module in the Phoenix Platform (version 8.3.1 or above, Certara Inc., Princeton, NJ 08540). Calculations were performed using nominal sampling times in the pharmacokinetic analysis. All pharmacokinetic parameters and summary statistics are reported to 3 significant digits except for Tmax, which is reported to 2 decimal places. • Cmax: Observed peak blood/plasma concentration • Tmax: Time to reach observed peak blood/plasma concentration • kel: Elimination rate constant determined by linear regression analysis of selected time points in the apparent terminal phase of the log plasma concentration vs. time curve (not reported) • t1/2: Apparent terminal half-life calculated as ln(2)/kel • MRT: Mean time a drug molecule resides in body • AUC0-last: Area under the plasma concentration vs. time curve from 0 to the last quantifiable concentration calculated by the linear trapezoidal method • AUC0-inf: Area under the plasma concentration vs. time curve from 0 h to infinity, calculated as AUC0-last+Clast/kel

C[C@@H](NC(=O)c1ncnc(N)c1Cl)c1ncc(C(=O)Nc2cc(C(F)(F)F)c(Cl)cn2)s1 [DAY 101 API]
AUC0-inf: 407 ± 20.4 µg·h/mL
AUC0-last: 300 ± 24.7 µg·h/mL
Cmax: 18300 ± 1510 ng/mL
MRTlast: 9.42 ± 0.573 h
Tmax: 8.00 ± 0.00 h
t1/2: 12.7 ± 2.30 h
